US20130217132A1, “METHODS, COMPOSITIONS AND USE FOR ENHANCING CHEMICAL TOLERANCE BY MICROORGANISMS” (priority 2009, published 2013)
Converted amounts (≈) assume the structure as drawn. Where two headings read alike, the source gives them in different places.

Legend:
BW25113 E. coli strain = assay: Minimum inhibitory concentration (MIC) assay of furfural in MOPS minimal media; assay type: cell-based; settings: Escherichia coli, n=3, read-out: MIC (first concentration of furfural that inhibited bacterial growth)
Procedure: In one exemplary method, assays were performed to determine minimum inhibitory concentration (MIC) of ethanol, furfural and acetate for BW25113 and MG1655 E. coli strains. FIG. 16 represents a histogram plot of illustrating tolerance differences of furfural in BW25113 and MG1655 E. coli strains. Cells from each strain were inoculated from the same optical density into a total of 100 μL of varying furfural concentrations in a minimal media, for example using MOPS. Cell growth in the first 24 hr or 48 hr in the presence of furfural was monitored. The left bar in each pair for each indicated strain represents a first concentration of furfural that inhibited bacterial growth after 24 hr. The right bar for each strain represents the first concentration that inhibited growth after 48 hr. The MIC reads were the average of triplicates (n=3), and error bars represent standard deviation. […] Thus, this difference in strains led to further investigation into the difference between these strains. ArecA signifies strains where the gene has been knocked out as previously described.

[1] = tested on: pBTL-1 Control (blank vector) culture; assay: Aerobic growth (specific growth, final OD600) in MOPS minimal media with inhibitor, control; assay type: cell-based, E. coli; settings: aerobic growth in 1 g/L furfural
Procedure: Certain experiments described herein were performed in E. coli BW25113 recA-, with the kanamycin resistance gene removed.
Cultures were grown in 10 ml MOPS minimal media, 100 μg carbenicillin/ml, and either 1 g furfural/1 supplemented, 2 g HMF/1, or 4 g acetate/1, in 15 ml conical tubes at 37° C. The optical density of 1 ml culture was measured with a spectrophotometer at 600 nm. A natural log transformation of the data was then calculated and then a regression line was fit to the data to calculate specific growth, which is […] to the culture doubling time. The blank vector, pBTL-1, served as the control. The lpcA gene was cloned into the pBTL-1 using standard cloning techniques and primers designed to amplify the gene from template DNA.

E. coli LYO1 = settings: cited from earlier work
ADH = settings: 0.12 g/L furfural; cited from earlier work
[2] = tested on: BW25113 ArecA transformed with the blank vector (pBTL-1); assay: MIC assay of furfural, blank vector strain; assay type: cell-based, E. coli; settings: for MIC of furfural: blank vector, FIG. 18B
Procedure: (§1) In one exemplary method, assays were performed to determine minimum inhibitory concentration (MIC) of ethanol, furfural and acetate for BW25113 and MG1655 E. coli strains. […] Cells from each strain were inoculated from the same optical density into a total of 100 μL of varying furfural concentrations in a minimal media, for example using MOPS. Cell growth in the first 24 hr or 48 hr in the presence of furfural was monitored. The left bar in each pair for each indicated strain represents a first concentration of furfural that inhibited bacterial growth after 24 hr. The right bar for each strain represents the first concentration that inhibited growth after 48 hr. The MIC reads were the average of triplicates (n=3), and error bars represent standard deviation. […] ArecA signifies strains where the gene has been knocked out as previously described.
(§2) The minimum inhibitory concentration (MIC) of furfural of MG1655 and BW25113 with or without lpcA overexpression was determined. MIC assays were performed as described in Example 13. […] MIC reads were average of triplicates (n=3), and error bars represent standard deviation. The SDS-PAGE gel image in FIG. 17C represents LPS level of the cells indicated above the gel image (duplicate of each cell sample was presented). LPS was extracted from the indicated cells grown to exponential phase. Loading of LPS the SDS-PAGE gel was normalized to the cell number. The gel was stained for visualization after desired separation of LPS was obtained.
(§3) In another exemplary method, MIC was determined when MG1655 and BW25113 strains were fed with various carbon sources. MIC assays were performed in the presence of furfural. Glucose, Xylose or Ribose was supplemented with a minimal media for cell growth. […] MICs were read at the indicated time (24 hr or 48 hr), the average of triplicates was presented and error bars represent standard deviation. ‘Blank vector’ refers to the pBTL-1 vector, which served as the control. […]

BW25113 ArecA pLPCA = assay: MIC assay of furfural, lpcA overexpression strain; assay type: cell-based, E. coli; settings: Escherichia coli
Procedure: as §1, §2, §3

[3] = tested on: pyruvate dehydrogenase (PDH) complex; settings: 0.12 g/L furfural; cited from earlier work

## O=Cc1ccco1 [furfural, furan-2-carbaldehyde]
BW25113 E. coli strain; BW25113, after 24 hr
  MIC: 500 µg/mL (≈ 5.2 mM)
BW25113 E. coli strain; BW25113, after 48 hr
  MIC: 1200 µg/mL (≈ 12.5 mM)
[1]
  Final OD600 (24 hr): 0.586
[1]; n=3
  Specific Growth: 0.111 h⁻¹
E. coli LYO1
  ethanol production: inhibited
ADH
  activity inhibited: 60%
[2]; Escherichia coli, BW25113, read-out: MIC of furfural
  MIC: 500 µg/mL
[2]; glucose as carbon source
  MIC of furfural: 500 µg/mL
[2]; xylose as carbon source
  MIC of furfural: 500 µg/mL
BW25113 ArecA pLPCA; BW25113, read-out: MIC of furfural, BW25113 ArecA pLPCA, FIG. 17C
  MIC: 1250 µg/mL
BW25113 ArecA pLPCA; BW25113, read-out: MIC of furfural, pLPCA, glucose as carbon source, FIG. 18B
  MIC: 1250 µg/mL
BW25113 ArecA pLPCA; BW25113, read-out: MIC of furfural, pLPCA, xylose as carbon source, FIG. 18B
  MIC: 1000 µg/mL
[3]
  activity reduction: more than 80%
